Test [1] deals with Aspergillus fumigatus. Briefly: Antifungal activity against Aspergillus fumigatus RCMB 002568 assessed as diameter of inhibition zone at 1 mg/mL after 48 hrs by agar well diffusion method. The format is functional. Conditions: RCMB 002568, 48 h, read-out: DIZ. On the technique in general: In agar diffusion tests the substance spreads into inoculated agar from a disc or well.
The test system of test [2] is Candida albicans. The test is described as follows: Antifungal activity against Candida albicans RCMB 005036 assessed as diameter of inhibition zone at 1 mg/mL after 24 to 48 hrs by agar well diffusion method. The format is functional. To be noted: read-out: DIZ.
In test [3] the test system is Streptococcus pneumoniae. Briefly: Antibacterial activity against Streptococcus pneumoniae RCMB 010010 assessed as diameter of inhibition zone at 1 mg/mL after 24 to 48 hrs by agar well diffusion method. To be noted: read-out: DIZ. The format is functional.
The subject of test [4] is Bacillus subtilis. Briefly: Antibacterial activity against Bacillus subtilis RCMB 010067 assessed as diameter of inhibition zone at 1 mg/mL after 24 to 48 hrs by agar well diffusion method. The format is functional. To be noted: read-out: DIZ.
In test [5] the test system is Pseudomonas aeruginosa. The test is described as follows: Antibacterial activity against Pseudomonas aeruginosa RCMB 010043 assessed as diameter of inhibition zone at 1 mg/mL after 24 to 48 hrs by agar well diffusion method. The format is functional. To be noted: read-out: DIZ.
For test [6], the system named is Escherichia coli. Briefly: Antibacterial activity against Escherichia coli RCMB 010052 assessed as diameter of inhibition zone at 1 mg/mL after 24 to 48 hrs by agar well diffusion method. The format is functional. Conditions: read-out: DIZ.
Test [7] concerns Aspergillus fumigatus. The test is described as follows: Antifungal activity against Aspergillus fumigatus RCMB 002568 after 24 to 48 hrs by agar well diffusion method. The format is functional.
Test [8] concerns Candida albicans. The test is described as follows: Antifungal activity against Candida albicans RCMB 005036 after 24 to 48 hrs by agar well diffusion method. The format is functional.
Test [9] has as its system Streptococcus pneumoniae. The test is described as follows: Antibacterial activity against Streptococcus pneumoniae RCMB 010010 after 24 to 48 hrs by agar well diffusion method. The format is functional.
The test system of test [10] is Bacillus subtilis. Briefly: Antibacterial activity against Bacillus subtilis RCMB 010067 after 24 to 48 hrs by agar well diffusion method. The format is functional.
Test [11] has as its system Pseudomonas aeruginosa. Briefly: Antibacterial activity against Pseudomonas aeruginosa RCMB 010043 after 24 to 48 hrs by agar well diffusion method. The format is functional.
The subject of test [12] is Escherichia coli. The test is described as follows: Antibacterial activity against Escherichia coli RCMB 010052 after 24 to 48 hrs by agar well diffusion method. The format is functional.
A short description of test [13]: (§1) Cytotoxicity against human MCF7 cells assessed as decrease in cell viability after 24 hrs by MTT assay. The format is functional, cell-based. Conditions: MCF7, 24 h. Background: Tetrazolium dyes change colour on reduction, which living cells bring about.
Test [14] concerns MCF7. The description is as §1. The format is functional, cell-based.
Test [15] concerns MCF7. The test is described as follows: Potency index, ratio of 5-fluorouracil IC50 to test compound IC50 for human MCF7 cells. The format is functional.

Each structure is given as a SMILES string. In brackets after ≈: the same amount, converted by molar mass.

A word on the MIC: it is the least concentration at which growth counts as inhibited. The low end stands for a more susceptible organism, the high end for a less susceptible organism. For orientation: IC50 means the concentration at which inhibition is half-maximal. As for `COc1cc(NS(=O)(=O)c2ccc(NC(=S)NC3CCN(Cc4ccccc4)CC3)cc2)nc(OC)n1`, the zone of inhibition at 1000 µg/mL was determined as 14.2 mm in [1]; 12.7 mm in test [2]; 17.3 mm in [3]; 18.4 mm in test [4]; 8.2 mm in [5]; 16.3 mm in test [6]. Further, the MIC in test [7] turned out to be 125 µg/mL (≈ 230 µM); in test [8] it was 125 µg/mL (≈ 230 µM); in [9], 15.6 µg/mL (≈ 28.8 µM); in test [10], 7.81 µg/mL (≈ 14.4 µM); in test [11] it was 500 µg/mL (≈ 921 µM); in test [12], 62.5 µg/mL (≈ 115 µM). The IC50 in test [13] worked out at 1.72 µg/mL (≈ 3.17 µM). The Activity result in test [14] was “Dose-dependent effect”. For the same compound, in [15], the “Ratio IC50” value was 3.
In the case of `COc1cc(NS(=O)(=O)c2ccc(NC(=S)Nc3cc(C)nc4ccccc34)cc2)nc(OC)n1`, the zone of inhibition at 1000 µg/mL was 13.7 mm in test [1]; 14.5 mm in test [2]; 13.9 mm in [3]; 14.4 mm in test [4]; 8.9 mm in test [5]; 15 mm in test [6]. The MIC in [7] stood at 125 µg/mL (≈ 245 µM); in test [8] it was 125 µg/mL (≈ 245 µM); in [9], 125 µg/mL (≈ 245 µM); in test [10], 125 µg/mL (≈ 245 µM); in test [11] it was 500 µg/mL (≈ 979 µM); in test [12] it was 125 µg/mL (≈ 245 µM). Besides, the IC50 in [13] stood at 68.7 µg/mL (≈ 135 µM). The Activity entry in [14] is “Dose-dependent effect”.
In the case of `COc1cc(NS(=O)(=O)c2ccc(NC(=S)NN3C(=O)CSC3=S)cc2)nc(OC)n1`, the zone of inhibition at 1000 µg/mL came out at 24.3 mm in test [1]; 22.3 mm in [2]; 24.3 mm in test [3]; 28.1 mm in [4]; 14.9 mm in test [5]; 27.2 mm in [6]. The MIC in [7] was 0.98 µg/mL (≈ 1.96 µM); in test [8], 1.95 µg/mL (≈ 3.9 µM); in [9], 0.98 µg/mL (≈ 1.96 µM); in test [10], 0.49 µg/mL (≈ 0.979 µM); in [11], 62.5 µg/mL (≈ 125 µM); in test [12], 0.49 µg/mL (≈ 0.979 µM). Further, in [13], the IC50 was 47.7 µg/mL (≈ 95.3 µM). Besides, in [14], the Activity result was “Dose-dependent effect”.
`CCOc1ccc2nc(NC(=S)Nc3ccc(S(=O)(=O)Nc4cc(OC)nc(OC)n4)cc3)sc2c1`: the zone of inhibition at 1000 µg/mL came to 18.3 mm in test [1]; 19.1 mm in [2]; 20.3 mm in test [3]; 21.3 mm in test [4]; 9.2 mm in [5]; 18.3 mm in test [6]. Besides, the MIC in test [7] was 7.81 µg/mL (≈ 14.3 µM); in test [8], 7.81 µg/mL (≈ 14.3 µM); in [9] it was 3.9 µg/mL (≈ 7.13 µM); in test [10], 3.9 µg/mL (≈ 7.13 µM); in test [11] it was 500 µg/mL (≈ 915 µM); in test [12], 7.81 µg/mL (≈ 14.3 µM). Also, in test [13], the IC50 was above 200 µg/mL. Further, in test [14], the Activity result was “Dose-dependent effect”.
For the compound `COc1cc(NS(=O)(=O)c2ccc(NC(=S)Nc3nc4c(OC)cccc4s3)cc2)nc(OC)n1`, the zone of inhibition at 1000 µg/mL was 16.4 mm in test [1]; 13.2 mm in test [2]; 17.8 mm in [3]; 18.3 mm in test [4]; 8.9 mm in test [5]; 16.2 mm in test [6]. For the same compound, the MIC in test [7] was 7.81 µg/mL (≈ 14.7 µM); in test [8], 125 µg/mL (≈ 235 µM); in [9] it was 7.81 µg/mL (≈ 14.7 µM); in [10] it was 7.81 µg/mL (≈ 14.7 µM); in [11] it was 500 µg/mL (≈ 939 µM); in [12] it was 62.5 µg/mL (≈ 117 µM). Besides, the IC50 in test [13] turned out to be 47.6 µg/mL (≈ 89.4 µM). The Activity result in test [14] was “Dose-dependent effect”.

Values taken from ChEMBL document CHEMBL3875150, “Biological evaluation of some new N-(2,6-dimethoxypyrimidinyl) thioureido benzenesulfonamide derivatives as potential antimicrobial and anticancer agents” (Eur J Med Chem, 2016).
